# In patent US11298431B2, “Method for labeling radioisotope radiolabeling compound and kit comprising the same for labeling radioisotope” (KOREA ATOMIC ENERGY RESEARCH INSTITUTE, priority 2018, dated 2022):
# Columns and labels:
# [1] = Storage stability of the radioiodinated aldehyde in the refrigerator; assay type: physicochemical
# Description: (§1) For synthesis of ^125I-labeled aldehyde [^125I] 5, specific radioactive analogue 4-iodo-N-(4-oxobutyl) benzamide) 5 was synthesized by coupling of 4-aminobutyraldehyde diethyl acetal with 4-iodobenzoic acid under basic conditions and a subsequent reduction under acidic conditions (Scheme 1). The radioiodination shown in 6 was achieved using [^125I] NaI and chloramines-T as oxidants (Scheme 3). The radioiodination reaction was terminated by adding an aqueous solution of sodium metabisulfite. After HPLC purification of the crude product, [^125I] 5 was obtained with high radiochemical yield (72±6%, n=5). The specific activity was 45 GBq/μmol and the chemical purity was more than 99%. In the HPLC chromatogram of the crude mixture, the main product [^125I] 5 was clearly shown at 22.6 minutes (FIG. 1). Radio-labeling reactions were performed by using various amounts of radioisotopes (100 μCi to 1 mCi), but the radiochemical results were consistent. The radioactive iodine compound [^125I] […] The compound [^125I]
# [2] = In vitro stability in various media at 37° C. (radio-HPLC); assay type: in vitro ADME
# Description: as §1
structure (smiles),measurement,setting,value
O=CCCCNC(=O)c1ccc([125I])cc1 [[^125I] 5],hydrolysis,[1]; compared with active ester-based prosthetic groups (Bolton-Hunter-reagent),not hydrolyzed
same,time found to be stable in the refrigerator,[1]; refrigerator (4° C.),more than 6 months
same,time shown to be stable in medium,[2]; PBS,≥ 24 h
same,time shown to be stable in medium,[2]; mouse serum,≥ 24 h
same,time shown to be stable in medium,[2]; saline,≥ 24 h
